Experimental data: patent publication US20050014849A1, “Antifungal phenylethylene” (priority 2001, published 2005)
Like-named read-outs stand apart in the source and are kept apart here.

Assays:
[1] = system: C. albidus ATCC 34140; assay: Broth macrodilution MIC/MFC; format: cell-based, Cryptococcus albidus
Protocol: (§1) TMPN was screened against yeasts by the broth macrodilution assay according to the NCCLS [7]. Yeasts were suspended and diluted as recommended to yield final inocula ranging from 0.5-2.5×10^3 cfu/ml. Tests were performed in sterile 12 by 75 mm plastic tubes containing two-fold dilutions of TMPN in 0.165 M morpholinepropanesulfonic acid buffered RPMI 1640 medium (pH 7.0). One tube was again left drug free (but contained an equivalent volume of DMSO) for a turbidity control. Tubes were incubated without agitation at the appropriate temperature (see Fungal Strains section above). MICs were determined after 72 h for Cryptococcus and after 48 h for other yeast genera. The MIC was defined as the lowest concentration of TMPN that inhibited all visible growth of the test organism (optically clear).
(§2) Minimum fungicidal concentrations (MFCs) were determined by subculturing 0.1 ml from each tube with no visible growth in the MIC broth macrodilution series onto the appropriate drug-free plates (see Fungal Strains section above).

[2] = system: C. albidus ATCC 40666; assay: Broth macrodilution MIC/MFC; format: cell-based, Cryptococcus albidus
Protocol: as §1, §2

[3] = system: C. albidus ATCC 66030; assay: Broth macrodilution MIC/MFC; format: cell-based, Cryptococcus albidus
Protocol: as §1, §2

[4] = system: Blastoschizomyces capitalus ATCC 10663; assay: Broth macrodilution MIC/MFC; format: cell-based
Protocol: as §1, §2

[5] = system: Candida albicans (7); assay: Broth macrodilution MIC/MFC; format: cell-based
Protocol: as §1, §2

[6] = system: Filobasidium uniguttulatum ATCC 24227; assay: Broth macrodilution MIC/MFC; format: cell-based
Protocol: as §1, §2

[7] = system: Fluconazole-resistant Cryptococcus neoformans (4); assay: Broth macrodilution MIC/MFC; format: cell-based
Protocol: as §1, §2

[8] = system: K. apiculate ATCC 9774; assay: Broth macrodilution MIC/MFC; format: cell-based
Protocol: as §1, §2

[9] = system: Kluyveromyces marxianus ATCC 365534; assay: Broth macrodilution MIC/MFC; format: cell-based
Protocol: as §1, §2

[10] = system: Rhodotorula mucilaginosa ATCC 9449; assay: Broth macrodilution MIC/MFC; format: cell-based
Protocol: as §1, §2

[11] = system: Trichosporon cutaneum ATCC 28592; assay: Broth macrodilution MIC/MFC; format: cell-based
Protocol: as §1, §2

[12] = system: C. albicans ATCC 14053; assay: Broth macrodilution MIC/MFC; format: cell-based, Candida albicans
Protocol: as §1, §2

[13] = system: C. krusei (10); assay: Broth macrodilution MIC/MFC; format: cell-based, Candida krusei
Protocol: as §1, §2

[14] = system: C. utilis ATCC 22023; assay: Broth macrodilution MIC/MFC; format: cell-based, Candida utilis
Protocol: as §1, §2

[15] = system: C. utilis ATCC 9226; assay: Broth macrodilution MIC/MFC; format: cell-based, Candida utilis
Protocol: as §1, §2

[16] = system: C. viswanathii ATCC 22981; assay: Broth macrodilution MIC/MFC; format: cell-based, Candida viswanathii
Protocol: as §1, §2

[17] = system: T. inkin ATCC 18020; assay: Broth macrodilution MIC/MFC; format: cell-based, Trichosporon inkin; settings: for MFC: Trichosporon inkin ATCC 18020; for MIC: Trichosporon inkin
Protocol: as §1, §2
Possible host effects were also evaluated. Broth macrodilution assays were performed with RPMI medium prepared at pH 5, pH 6, and pH 7, and in RPMI medium with and without 50% normal human serum (Lampire Biological Labs). The pH experiments were performed twice on separate days.

[18] = system: Epidermophyton floccosum ATCC 52066; assay: Broth macrodilution MIC/MFC; format: cell-based
[19] = system: A. niger (ASU culture collection); assay: Broth macrodilution MIC/MFC, filamentous fungi; format: cell-based, Aspergillus niger
Protocol: Susceptibility testing of filamentous fungi was also conducted. Broth macrodilution susceptibility testing of P. lilacinus, Rhizopus spp. and Aspergillus spp. was performed in accordance with a proposed standardized procedure with slight modification. To induce conidium and sporangiospore formation, fungi were grown on PDA slants at 35° C. for 6 days (P. lilacinus, Rhizopus spp., all Aspergillus species except A. nidulans) or 3 days (A. nidulans). Fungal slants were covered with sterile 0.85% NaCl (P. lilacinus, Rhizopus spp., all Aspergillus species except A. nidulans) or 0.05% Tween 80 (A. nidulans), and suspensions were made by gently probing the colonies with the tip of a sterile Pasteur pipette. The resulting mixture of hyphal fragments and conidia or sporangiospores was withdrawn and transferred to a sterile clear microcentrifuge tube, and heavy particles were allowed to settle for 10 min. […] Susceptibility to TMPN was then determined by broth macrodilution as described above for yeast isolates. […]
as §2

[20] = system: all 60 Candida spp. clinical isolates; assay: Broth macrodilution MFC/MIC ratios, combined Candida isolates; format: cell-based; settings: all 60 Candida spp. clinical isolates combined
Protocol: as §1, §2

COc1cc(C=C[N+](=O)[O-])cc(OC)c1OC [TMPN, 1-(3′,4′,5′-trimethoxyphenyl)-2-nitro-ethylene]
1 µg/mL: MIC Range [8]
4 to 16 µg/mL: MFC Range [7]
64 µg/mL: MFC Range [19]
0.5 µg/mL: MIC Range [6]
47%: share of isolates with MFC/MIC ratio ≦2 [20]
4 µg/mL: MFC Range [9] | MIC Range [9] | MIC Range [10] | MIC Range [11] | MIC Range [15] | MIC ([17]; ATCC18020, pH 5, Trichosporon inkin ATCC 18020, pH 5) | MIC ([17]; ATCC18020, pH 5, Trichosporon inkin ATCC 18020, pH 5, repeat experiment)
16 to 64 µg/mL: MFC Range ([13]; C. krusei (10))
70%: share of isolates with MFC/MIC ratio <2 ([13]; C. krusei clinical isolates)
32 µg/mL: MFC Range [1] | MIC Range [1] | MFC Range [2] | MFC Range [4] | MFC 50% (MFC at which 50% of the strains are killed) ([13]; C. krusei (10)) | MFC 90% (MFC at which 90% of the strains are killed) ([13]; C. krusei (10)) | MIC Range [16]
>64 µg/mL: MFC Range [16]
> 64 µg/mL: MIC ([17]; ATCC18020, Trichosporon inkin ATCC 18020, 50% human serum)
8 µg/mL: MIC Range [2] | MIC Range [3] | MIC Range [4] | MFC Range [10] | MFC Range [11] | MIC50 ([13]; Pichia kudriavzevii, C. krusei (10), read-out: MIC 50% (MIC at which 50% of the strains are inhibited)) | MFC Range [14] | MIC Range [14] | MFC Range [15] | MFC ([17]; ATCC18020, pH 5, read-out: MFC) | MIC Range ([17]; T. inkin ATCC 18020) | MFC ([17]; pH 5, repeat experiment) | MIC ([17]; ATCC18020, Trichosporon inkin ATCC 18020, no serum) | MIC ([17]; ATCC18020, pH 6, Trichosporon inkin ATCC 18020, pH6) | MIC ([17]; ATCC18020, pH 6, Trichosporon inkin ATCC 18020, pH6, repeat experiment) | MIC ([17]; ATCC18020, pH 7, Trichosporon inkin ATCC 18020, pH7) | MIC ([17]; ATCC18020, pH 7, Trichosporon inkin ATCC 18020, pH7, repeat experiment)
60%: share of isolates with MFC/MIC ratio ≦4 [20]
71%: share of isolates with MFC/MIC ratio <2 ([5]; C. albicans clinical isolates) | share of isolates with MFC/MIC ratio ≦2 ([5]; Candida albicans clinical isolates)
4 to 8 µg/mL: MIC Range [7]
8 to 16 µg/mL: MIC Range ([13]; C. krusei (10))
2 µg/mL: MFC Range [6] | MFC Range [8] | MIC Range [18]
4 to 32 µg/mL: MIC Range ([5]; Candida albicans (7))
16 µg/mL: MFC Range [3] | MFC Range [12] | MIC Range [12] | MIC90 ([13]; Pichia kudriavzevii, C. krusei (10), read-out: MIC 90% (MIC at which 90% of the strains are inhibited)) | MFC ([17]; ATCC18020, pH 6, pH6, read-out: MFC) | MFC ([17]; ATCC18020, pH 7, pH7, read-out: MFC) | MFC ([17]; ATCC18020, no serum, read-out: MFC) | MFC Range ([17]; T. inkin ATCC 18020) | MFC ([17]; pH6, repeat experiment) | MFC ([17]; pH7, repeat experiment) | MIC Range [19]
